Values of other authors as cited in patent US20140255430A1, “METHODS AND REAGENTS FOR DETECTION AND TREATMENT OF ESOPHAGEAL METAPLASIA” (NATIONAL UNIVERSITY OF SINGAPORE, priority 2010, published 2014).

Molecular target: T1, PPARgamma (Homo sapiens, UniProt P37231)
T1 sequence (P37231 1-505): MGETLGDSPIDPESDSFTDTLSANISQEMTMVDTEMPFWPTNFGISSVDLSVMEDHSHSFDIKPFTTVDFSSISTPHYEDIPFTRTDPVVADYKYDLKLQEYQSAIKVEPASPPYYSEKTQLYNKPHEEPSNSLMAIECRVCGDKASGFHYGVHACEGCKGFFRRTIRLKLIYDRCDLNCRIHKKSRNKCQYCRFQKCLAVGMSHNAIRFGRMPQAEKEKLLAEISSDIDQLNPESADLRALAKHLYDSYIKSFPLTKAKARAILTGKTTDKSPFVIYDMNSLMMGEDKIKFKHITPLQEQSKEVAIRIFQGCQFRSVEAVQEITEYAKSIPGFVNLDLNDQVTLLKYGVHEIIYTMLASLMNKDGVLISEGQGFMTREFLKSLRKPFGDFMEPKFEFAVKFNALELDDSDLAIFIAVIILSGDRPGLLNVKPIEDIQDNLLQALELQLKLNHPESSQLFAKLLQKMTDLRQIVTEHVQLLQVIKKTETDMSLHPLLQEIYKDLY
Details: irreversible inhibitor

## O=C(Nc1ccccc1)c1cc([N+](=O)[O-])ccc1Cl [GW-9662, 2-Chloro-5-nitro-N-phenyl-benzamide]
  IC50 for suppression of PPARgamma: nanomolar
